Results published in patent publication US10150771B2, “Triazolopyrazinones as PDE1 inhibitors” (H. Lundbeck A/S, priority 2014, dated 2018).

Key:
Assay type in all cases: biochemical
[1] = molecular target: PDE1B (Homo sapiens, UniProt Q01064); experiment: PDE1 inhibition assay (SPA), PDE1B; details: for IC50: concentration required to reach 50% inhibition of the enzyme, 15 nM tritium labelled cAMP, read-out: PDE1B inhibition (nM or %): IC50
Method: (§1) PDE1 Inhibition Assay PDE1A, PDE1B and PDE1C assays were performed as follows: the assays were performed in 60 μL samples containing a fixed amount of the PDE1 enzym1 (sufficient to convert 20-25% of the cyclic nucleotide substrate), a buffer (50 mM HEPES pH 7.6; 10 mM MgCl2; 0.02% Tween20), 0.1 mg/ml BSA, 15 nM tritium labelled cAMP and varying amounts of inhibitors. Reactions were initiated by addition of the cyclic nucleotide substrate, and reactions were allowed to proceed for 1 h at room temperature before being terminated through mixing with 20 μL (0.2 mg) yttrium silicate SPA beads (PerkinElmer). The beads were allowed to settle for 1 h in the dark before the plates were counted in a Wallac 1450 Microbeta counter. The measured signals were converted to activity relative to an uninhibited control (100%) and IC50 values were calculated using XIFit (model 205, IDBS).

[2] = molecular target: PDE1C (Homo sapiens, UniProt Q14123); experiment: PDE1 inhibition assay (SPA), PDE1C; details: concentration required to reach 50% inhibition of the enzyme; 15 nM tritium labelled cAMP; read-out: PDE1C inhibition (nM or %): IC50
Method: as §1

[3] = molecular target: PDE1A (Homo sapiens, UniProt P54750); experiment: PDE1 inhibition assay (SPA), PDE1A; details: for IC50: concentration required to reach 50% inhibition of the enzyme, 15 nM tritium labelled cAMP, read-out: PDE1A inhibition (nM or %): IC50; for inhibition at 10 µM: 1 h, % inhibition of the enzyme at a concentration of 10 micro molar of the compound, read-out: PDE1A inhibition (nM or %): % inhib
Method: as §1

Sequence of PDE1A (P54750 whole entry): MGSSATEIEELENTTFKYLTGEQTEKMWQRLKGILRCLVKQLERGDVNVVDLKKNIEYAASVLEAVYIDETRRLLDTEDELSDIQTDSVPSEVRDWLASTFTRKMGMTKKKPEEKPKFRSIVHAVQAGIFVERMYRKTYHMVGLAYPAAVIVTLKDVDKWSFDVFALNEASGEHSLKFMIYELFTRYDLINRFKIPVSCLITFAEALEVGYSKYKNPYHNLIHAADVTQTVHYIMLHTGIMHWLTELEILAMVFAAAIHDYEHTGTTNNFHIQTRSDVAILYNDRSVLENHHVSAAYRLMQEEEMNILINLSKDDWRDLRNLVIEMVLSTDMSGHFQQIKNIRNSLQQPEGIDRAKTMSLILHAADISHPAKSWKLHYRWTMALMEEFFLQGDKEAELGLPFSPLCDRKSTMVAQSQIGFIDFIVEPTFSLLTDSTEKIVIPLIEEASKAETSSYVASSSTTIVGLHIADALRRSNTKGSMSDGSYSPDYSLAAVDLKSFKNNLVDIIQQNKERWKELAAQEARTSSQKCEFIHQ
Sequence of PDE1C (Q14123 whole entry): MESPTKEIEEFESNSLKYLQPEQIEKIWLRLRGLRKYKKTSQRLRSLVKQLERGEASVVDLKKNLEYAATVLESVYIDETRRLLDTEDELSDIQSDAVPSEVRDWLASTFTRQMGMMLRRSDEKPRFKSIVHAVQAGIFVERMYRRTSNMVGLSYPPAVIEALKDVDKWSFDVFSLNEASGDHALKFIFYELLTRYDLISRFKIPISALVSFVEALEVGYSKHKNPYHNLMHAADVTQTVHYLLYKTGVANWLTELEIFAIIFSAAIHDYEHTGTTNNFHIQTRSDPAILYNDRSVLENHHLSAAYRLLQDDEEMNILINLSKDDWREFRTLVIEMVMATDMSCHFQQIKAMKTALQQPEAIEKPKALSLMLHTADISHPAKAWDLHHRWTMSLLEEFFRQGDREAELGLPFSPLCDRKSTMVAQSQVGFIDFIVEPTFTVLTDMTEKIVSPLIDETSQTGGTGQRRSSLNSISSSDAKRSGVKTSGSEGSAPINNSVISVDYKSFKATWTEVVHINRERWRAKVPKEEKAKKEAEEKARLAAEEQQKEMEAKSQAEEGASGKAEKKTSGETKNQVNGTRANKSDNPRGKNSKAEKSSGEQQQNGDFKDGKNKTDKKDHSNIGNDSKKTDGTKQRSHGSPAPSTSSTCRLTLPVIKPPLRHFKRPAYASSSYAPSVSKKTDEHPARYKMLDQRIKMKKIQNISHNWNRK
Sequence of PDE1B (Q01064 whole entry): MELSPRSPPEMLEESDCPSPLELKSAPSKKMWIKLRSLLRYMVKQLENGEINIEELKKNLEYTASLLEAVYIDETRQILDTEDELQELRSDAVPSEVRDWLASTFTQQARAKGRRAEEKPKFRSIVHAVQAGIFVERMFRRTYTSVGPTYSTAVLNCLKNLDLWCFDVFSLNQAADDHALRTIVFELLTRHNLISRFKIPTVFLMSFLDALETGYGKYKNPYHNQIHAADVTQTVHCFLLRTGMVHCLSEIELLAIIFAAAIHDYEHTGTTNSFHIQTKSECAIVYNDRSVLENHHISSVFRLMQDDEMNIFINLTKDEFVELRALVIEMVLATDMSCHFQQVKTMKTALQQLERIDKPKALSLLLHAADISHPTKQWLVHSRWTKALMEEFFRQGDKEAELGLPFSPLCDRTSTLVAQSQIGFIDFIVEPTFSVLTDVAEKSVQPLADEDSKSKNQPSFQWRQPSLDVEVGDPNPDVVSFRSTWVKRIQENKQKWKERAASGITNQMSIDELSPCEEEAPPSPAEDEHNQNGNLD

IC50 [1]	IC50 [2]	IC50 [3]	inhibition at 10 µM [3]	inhibition at 10 µM ([1]; 1 h, % inhibition of the enzyme at a concentration of 10 micro molar of the compound, read-out: PDE1B inhibition (nM or %): % inhib)	SMILES
82 nM	17 nM	91 nM	–	–	Cc1ccccc1Cc1cn2c(C3CCOCC3)nnc2c(=O)n1Cc1cccc(F)c1 [7-(3-fluorobenzyl)-6-(2-methylbenzyl)-3-(tetrahydro-2H-pyran-4-yl)-[1,2,4]triazolo[4,3-a]pyrazin-8(7H)-one]
1000 nM	350 nM	1800 nM	–	–	O=c1c2nnc([C@H]3CC[C@@H](O)CC3)n2ccn1Cc1cccc(F)c1 [7-(3-Fluorobenzyl)-3-((1s,4s)-4-hydroxycyclohexyl)-[1,2,4]triazolo[4,3-a]pyrazin-8(7H)-one]
1600 nM	2800 nM	2000 nM	–	–	Cn1c(Cc2ccccc2)cn2c(C3CCOCC3)nnc2c1=O [6-benzyl-7-methyl-3-(tetrahydro-2H-pyran-4-yl)-[1,2,4]triazolo[4,3-a]pyrazin-8(7H)-one]
0.17 nM	0.1 nM	0.33 nM	–	–	O=c1c2nnc(C3CCOCC3)n2cc(Cc2ccc(-c3ccccc3)cc2)n1CC1CCCCC1 [6-([1,1′-biphenyl]-4-ylmethyl)-7-(cyclohexylmethyl)-3-(tetrahydro-2H-pyran-4-yl)-[1,2,4]triazolo[4,3-a]pyrazin-8(7H)-one]
4 nM	2 nM	1 nM	–	–	O=c1c2nnc(C3CCOCC3)n2cc(Cc2ccccc2)n1CC1CCCCCC1 [6-benzyl-7-(cycloheptylmethyl)-3-(tetrahydro-2H-pyran-4-yl)-[1,2,4]triazolo[4,3-a]pyrazin-8(7H)-one]
46 nM	5 nM	65 nM	–	–	O=c1c2nnc(C3CCOCC3)n2cc(Cc2ccccc2)n1CC1CCCC1 [6-benzyl-7-(cyclopentylmethyl)-3-(tetrahydro-2H-pyran-4-yl)-[1,2,4]triazolo[4,3-a]pyrazin-8(7H)-one]
150 nM	24 nM	114 nM	–	–	O=c1c2nnc(C3CCOCC3)n2cc(Br)n1Cc1cccc(F)c1 [6-bromo-7-(3-fluorobenzyl)-3-(tetrahydro-2H-pyran-4-yl)-[1,2,4]triazolo[4,3-a]pyrazin-8(7H)-one]
990 nM	110 nM	1100 nM	–	–	O=c1c2nnc(C3CCOCC3)n2ccn1CC1CCCC1 [7-(Cyclopentylmethyl)-3-(tetrahydro-2H-pyran-4-yl)-[1,2,4]triazolo[4,3-a]pyrazin-8(7H)-one]
1000 nM	260 nM	1360 nM	–	–	CCCc1nnc2c(=O)n(Cc3cccc(F)c3)cc(C)n12 [7-(3-fluorobenzyl)-5-methyl-3-propyl-[1,2,4]triazolo[4,3-a]pyrazin-8(7H)-one]
2000 nM	1300 nM	3600 nM	–	–	CCCc1nnc2c(=O)n(CC3CC3)ccn12 [7-(Cyclopropylmethyl)-3-propyl-[1,2,4]triazolo[4,3-a]pyrazin-8(7H)-one]
22 nM	6 nM	24 nM	–	–	O=c1c2nnc(C3CCOCC3)n2cc(Cc2cccc(F)c2)n1CC1CCCCC1 [7-(cyclohexylmethyl)-6-(3-fluorobenzyl)-3-(tetrahydro-2H-pyran-4-yl)-[1,2,4]triazolo[4,3-a]pyrazin-8(7H)-one]
220 nM	27 nM	369 nM	–	–	O=c1c2nnc(C3CCOCC3)n2cc(Cc2cccc(F)c2)n1CC1CCCC1 [7-(cyclopentylmethyl)-6-(3-fluorobenzyl)-3-(tetrahydro-2H-pyran-4-yl)-[1,2,4]triazolo[4,3-a]pyrazin-8(7H)-one]
400 nM	110 nM	770 nM	–	–	CCCc1nnc2c(=O)n(Cc3ccccc3)ccn12 [7-Benzyl-3-propyl-[1,2,4]triazolo[4,3-a]pyrazin-8(7H)-one]
950 nM	260 nM	1300 nM	–	–	CCCc1nnc2c(=O)n(CC3(C)CCCCC3)ccn12 [7-((1-methylcyclohexyl)methyl)-3-propyl-[1,2,4]triazolo[4,3-a]pyrazin-8(7H)-one]
290 nM	800 nM	420 nM	–	–	O=c1c2nnc(C3CCCC3)n2ccn1Cc1cccc(F)c1 [3-Cyclopentyl-7-(3-fluorobenzyl)-[1,2,4]triazolo[4,3-a]pyrazin-8(7H)-one]
680 nM	140 nM	730 nM	–	–	O=c1c2nnc(C3CCOCC3)n2ccn1Cc1cccc(F)c1 [7-(3-Fluorobenzyl)-3-(tetrahydro-2H-pyran-4-yl)-[1,2,4]triazolo[4,3-a]pyrazin-8(7H)-one]
420 nM	760 nM	450 nM	–	–	CCCc1nnc2c(=O)n(CC3CCC(F)(F)CC3)ccn12 [7-((4,4-difluorocyclohexyl)methyl)-3-propyl-[1,2,4]triazolo[4,3-a]pyrazin-8(7H)-one]

IC50 [1]	IC50 [2]	IC50 [3]	inhibition at 10 µM [3]	inhibition at 10 µM ([1]; 1 h, % inhibition of the enzyme at a concentration of 10 micro molar of the compound, read-out: PDE1B inhibition (nM or %): % inhib)	SMILES
7200 nM	1700 nM	–	67%	–	O=c1c2nnc(C3COC3)n2ccn1Cc1cccc(F)c1 [7-(3-Fluorobenzyl)-3-(oxetan-3-yl)-[1,2,4]triazolo[4,3-a]pyrazin-8(7H)-one]
83 nM	170 nM	620 nM	–	–	CCCc1nnc2c(=O)n(Cc3ccc(Cl)cc3)ccn12 [7-(4-Chlorobenzyl)-3-propyl-[1,2,4]triazolo[4,3-a]pyrazin-8(7H)-one]
1600 nM	480 nM	3200 nM	–	–	CCCCC(CC)c1nnc2c(=O)n(Cc3cccc(F)c3)ccn12 (stereo not drawn) [7-(3-Fluorobenzyl)-3-(heptan-3-yl)-[1,2,4]triazolo[4,3-a]pyrazin-8(7H)-one]
510 nM	180 nM	858 nM	–	–	CCCc1nnc2c(=O)n(Cc3cccc(F)c3)cc(CC)n12 [5-ethyl-7-(3-fluorobenzyl)-3-propyl-[1,2,4]triazolo[4,3-a]pyrazin-8(7H)-one]
–	2400 nM	–	53%	42%	CCCc1nnc2c(=O)n(Cc3ccccc3C)ccn12 [7-(2-Methylbenzyl)-3-propyl-[1,2,4]triazolo[4,3-a]pyrazin-8(7H)-one]
1100 nM	270 nM	1100 nM	–	–	CCCc1nnc2c(=O)n(Cc3cccc(F)c3)c([C@@H]3CCOC3)cn12 (single isomer, unassigned)
28 nM	33 nM	54 nM	–	–	CCCc1nnc2c(=O)n(CC3CCCCCC3)ccn12 [7-(Cycloheptylmethyl)-3-propyl-[1,2,4]triazolo[4,3-a]pyrazin-8(7H)-one]
53 nM	92 nM	86 nM	–	–	CCCc1nnc2c(=O)n(CC3CCC4(CC3)CC4)ccn12 [3-propyl-7-(spiro[2.5]octan-6-ylmethyl)-[1,2,4]triazolo[4,3-a]pyrazin-8(7H)-one]
4 nM	3 nM	13 nM	–	–	O=c1c2nnc(C3CCOCC3)n2cc(Br)n1CC1CCCCCC1 [6-bromo-7-(cycloheptylmethyl)-3-(tetrahydro-2H-pyran-4-yl)-[1,2,4]triazolo[4,3-a]pyrazin-8(7H)-one]
180 nM	72 nM	149 nM	–	–	CCCc1nnc2c(=O)n(Cc3cccc(F)c3)cc(Br)n12 [5-bromo-7-(3-fluorobenzyl)-3-propyl-[1,2,4]triazolo[4,3-a]pyrazin-8(7H)-one]
560 nM	610 nM	660 nM	–	–	CCCc1nnc2c(=O)n(CC3CCC(F)CC3)ccn12 (mixture of isomers) [7-((4-fluorocyclohexyl)methyl)-3-propyl-[1,2,4]triazolo[4,3-a]pyrazin-8(7H)-one]
33 nM	42 nM	43 nM	–	–	O=c1c2nnc(C3CCOCC3)n2ccn1CC1CCCCCC1 [7-(Cycloheptylmethyl)-3-(tetrahydro-2H-pyran-4-yl)-[1,2,4]triazolo[4,3-a]pyrazin-8(7H)-one]
1300 nM	160 nM	1400 nM	–	–	CCCc1nnc2c(=O)n(Cc3cccc(Cl)c3)ccn12 [7-(3-Chlorobenzyl)-3-propyl-[1,2,4]triazolo[4,3-a]pyrazin-8(7H)-one]
99 nM	20 nM	63 nM	–	–	CCCc1nnc2c(=O)n(Cc3cccc(F)c3)c(Br)cn12 [6-bromo-7-(3-fluorobenzyl)-3-propyl-[1,2,4]triazolo[4,3-a]pyrazin-8(7H)-one]
800 nM	2400 nM	1000 nM	–	–	CCc1nnc2c(=O)n(Cc3ccc(Cl)cc3)ccn12 [7-(4-Chlorobenzyl)-3-ethyl-[1,2,4]triazolo[4,3-a]pyrazin-8(7H)-one]
180 nM	50 nM	117 nM	–	–	CCCc1nnc2c(=O)n(Cc3cccc(F)c3)c(CC)cn12 [6-ethyl-7-(3-fluorobenzyl)-3-propyl-[1,2,4]triazolo[4,3-a]pyrazin-8(7H)-one]
1 nM	0.37 nM	0.86 nM	–	–	Cc1ccc(Cc2cn3c(C4CCOCC4)nnc3c(=O)n2CC2CCCCCC2)cc1 [7-(cycloheptylmethyl)-6-(4-methylbenzyl)-3-(tetrahydro-2H-pyran-4-yl)-[1,2,4]triazolo[4,3-a]pyrazin-8(7H)-one]
